What was measured:
[1] = tested on: human neuroblastoma cell line SK-N-SH; experiment: Cytoprotection against Aβ(25-35) toxicity, cell viability; assay type: cell-based; conditions: SK-N-SH cells, 50 μM Aβ (25-35), 50 μM compound; FIG. 1
Method: To illustrate the cytoprotective affects of IPA against the cytotoxic effects of Aβ, cells of the human neuroblastoma cell line SK-N-SH were used. These cells were exposed to 50 μM Aβ (25-35), the actively toxic fragment of Aβ (Yankner et al., 1990) with or without 50 μM of IPA. As a control, the experiments were repeated without Aβ. As a positive control, the well-known anti-oxidant, phenyl-N-t-butylnitrone (“PBN”) was substituted for IPA.

[2] = tested on: PC12 neuroblastoma cells; experiment: Prevention of cell death induced by oxidative stress (DDTC, superoxide dismutase inhibition); assay type: cell-based, rat; conditions: varying amounts of DDTC and IPA, FIG. 5
Method: To further confirm the observations shown in Example 4, we studied whether IPA was effective in preventing death of cells exposed to oxidative stress (DDTC). PC12 neuroblastoma cells were treated with varying amounts of DDTC, with or without varying amounts of IPA. The anti-oxidant activity of IPA is shown by preventing cell death of neurblastoma cells induced by inhibition of the superoxide dismutase by DDTC.

[3] = molecular target: Aβ (1-40) (Homo sapiens, UniProt P05067); experiment: Aβ fibrillogenesis, thioflavin T fluorescence (β sheet formation); assay type: biochemical; conditions: 150 μM Aβ (1-40), 300 μM IPA, sodium salt
Sequence of Aβ (1-40) (P05067 672-711): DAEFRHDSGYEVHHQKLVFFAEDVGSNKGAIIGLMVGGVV
Method: As a control, the ultrapure water used to dissolve the IPA containing an equivalent amount of sodium chloride was added to 150 μM Aβ (1-40) at a pH of 7. In one experiment, each of the solutions (i.e., the solution containing IPA and the control solution) was incubated for 24 hours. In a second experiment, each of the solutions was incubated for 48 hours. At the end of each incubation period, 50 mM glycine-NaOH buffer (pH 9.2) containing 2 μM thioflavin T was added to each sample (5 μL) to a final volume of 2 mL. Fluorescence, which is a direct measure of β sheet formation, was measured at an excitation wavelength of 435 nm and an emission wavelength of 485 nm using a Hitachi F-2000 fluorescence spectrometer. The average and standard deviations of the mean of 3 samples per condition were determined, and the results are presented (as bar graphs) in FIG. 6A (24 hour incubation) and FIG. 6B (48 hour incubation).

[4] = tested on: PC12 cells; experiment: Lipid peroxidation (malondialdehyde levels) in cells exposed to Aβ or DDTC; assay type: cell-based, rat; conditions: PC12 cells exposed to amyloid peptide Aβ(1-42) or DDTC, with IPA; FIG. 4
Source text: In order to investigate the possibility that the cytoprotective properties of IPA are also the result, at least in part, of anti-oxidant activity, the -levels of malondialdehyde (“MDA”), a marker of lipid peroxidation, in PC12 cells exposed to Aβ or to oxidative stress were examined. Oxidative stress was delivered by exposing cells to […] (“DDTC”), an inhibitor of superoxide dismutase and an established model of oxidative injury. The PC12 cells were exposed to either amyloid peptide alone or amyloid peptide along with IPA. In other experiments, the cells were exposed to either DDTC alone or DDTC with IPA.

thioflavin T fluorescence (β sheet formation) relative to control ([3]; pH 7, 24 hour incubation, FIG. 6A)	thioflavin T fluorescence (β sheet formation) relative to control ([3]; pH 7, 48 hour incubation, FIG. 6B)	Structure (SMILES)	protective activity against cytotoxic effect of Aβ (viability, percent) [1]	survival of cells exposed to DDTC [2]	production of malondialdehyde (MDA), marker of lipid peroxidation [4]
–	–	CC(C)(C)[N+]([O-])=Cc1ccccc1 [PBN, phenyl-N-t-butylnitrone]	strong protective activity	–	–
significantly less	significantly less	O=C(O)CCc1c[nH]c2ccccc12 [IPA, indole-3-propionic acid]	–	increases the survival of cells exposed to DDTC	significantly decreases the production of malondialdehyde
